Reference: the supplement of paper PMC11061612

What was measured:
MK-2206 = compound: NC1(c2ccc(-c3nc4ccn5c(=O)[nH]nc5c4cc3-c3ccccc3)cc2)CCC1 [MK-2206]; conditions: max 10 µM
In short: (§1)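 Following 24 hours at 37°C and 5% CO2, cancer cell lines in 1536-well plates with 7.5 μl DMEM/F12 or RPMI and 10% FBS were dosed for 72 hours, final DMSO typically being 0.2%. CellTiter-Glo 2.0 luminescence, scaled between blank-well and DMSO-well means, gave the viability readout. Dose responses were fitted to a two-parameter logistic curve with a non-linear mixed effects model, and the single-agent IC50 was derived from this fit.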

AZD2811 = compound: CCN(CCO)CCCOc1ccc2c(Nc3cc(CC(=O)Nc4cccc(F)c4)[nH]n3)ncnc2c1 [AZD2811]; conditions: max 1 µM
In short: as §1

AZD5991 = compound: Cc1c2c(nn1C)CSCc1cc(n(C)n1)CSc1cc(c3ccccc3c1)OCCCc1c(C(=O)O)n(C)c3c-2c(Cl)ccc13 [AZD5991]; conditions: max 1 µM
In short: as §1

Gefitinib = compound: COc1cc2ncnc(Nc3ccc(F)c(Cl)c3)c2cc1OCCCN1CCOCC1 [Gefitinib]; conditions: max 10 µM
In short: as §1

AZD5153 = compound: COc1nnc2ccc(N3CCC(c4ccc(OCCN5CCN(C)C(=O)[C@H]5C)cc4)CC3)nn12 [AZD5153]; conditions: max 1 µM
In short: as §1

SN-38 = compound: CCc1c2c(nc3ccc(O)cc13)-c1cc3c(c(=O)n1C2)COC(=O)[C@]3(O)CC [SN-38]; conditions: max 0.3 µM
In short: as §1

Lapatinib = compound: CS(=O)(=O)CCNCc1ccc(-c2ccc3ncnc(Nc4ccc(OCc5cccc(F)c5)c(Cl)c4)c3c2)o1 [Lapatinib]; conditions: max 10 µM
In short: as §1

Prexasertib = compound: COc1cccc(OCCCN)c1-c1cc(Nc2cnc(C#N)cn2)n[nH]1 [Prexasertib]; conditions: max 1 µM
In short: as §1

Doxorubicin = compound: COc1cccc2c1C(=O)c1c(O)c3c(c(O)c1C2=O)C[C@@](O)(C(=O)CO)C[C@@H]3O[C@H]1C[C@H](N)[C@H](O)[C@H](C)O1 [Doxorubicin]; conditions: max 1 µM
In short: as §1

AZD7648 = compound: Cc1cc2ncnn2cc1Nc1ncc2c(n1)n(C1CCOCC1)c(=O)n2C [AZD7648]; conditions: max 10 µM
In short: as §1

[1] = compound: O=C(Nc1ccc2[nH]nc(-c3ccncc3)c2c1)[C@@H]1CCN(CC(=O)N2CCN(c3ccc(-c4ncccn4)cc3)CC2)C1; conditions: max 5 µM
In short: as §1

SRA737 = compound: N#Cc1cnc(Nc2cc(NC[C@H]3CNCCO3)c(C(F)(F)F)cn2)cn1 [SRA737]; conditions: max 10 µM
In short: as §1

Gemcitabine = compound: Nc1ccn([C@@H]2O[C@H](CO)[C@@H](O)C2(F)F)c(=O)n1 [Gemcitabine]; conditions: max 0.3 µM
In short: as §1

5-Fluorouracil = compound: O=c1[nH]cc(F)c(=O)[nH]1 [5-Fluorouracil]; conditions: max 20 µM
In short: as §1

Venetoclax = compound: CC1(C)CCC(CN2CCN(c3ccc(C(=O)NS(=O)(=O)c4ccc(NCC5CCOCC5)c([N+](=O)[O-])c4)c(Oc4cnc5[nH]ccc5c4)c3)CC2)=C(c2ccc(Cl)cc2)C1 [Venetoclax]; conditions: max 1 µM
In short: as §1

Dasatinib = compound: CC1=C(C(=CC=C1)Cl)NC(=O)C2=CN=C(S2)NC3=CC(=NC(=N3)C)N4CCN(CC4)CCO [Dasatinib]; conditions: max 2 µM
In short: as §1

Crizotinib = compound: C[C@@H](Oc1cc(-c2cnn(C3CCNCC3)c2)cnc1N)c1c(Cl)ccc(F)c1Cl [Crizotinib]; conditions: max 10 µM
In short: as §1

Paclitaxel = compound: CC(=O)O[C@H]1C(=O)[C@@]2(C)[C@H]([C@H](OC(=O)c3ccccc3)[C@]3(O)C[C@H](OC(=O)[C@H](O)[C@@H](NC(=O)c4ccccc4)c4ccccc4)C(C)=C1C3(C)C)[C@]1(OC(C)=O)CO[C@@H]1C[C@@H]2O [Paclitaxel]; conditions: max 3 µM
In short: as §1

AZD6738 = compound: C[C@@H]1COCCN1C2=NC(=NC(=C2)C3(CC3)[S@](=N)(=O)C)C4=C5C=CNC5=NC=C4 [AZD6738]; conditions: max 10 µM
In short: as §1

Taselisib = compound: Cc1nc(-c2cn3c(n2)-c2ccc(-c4cnn(C(C)(C)C(N)=O)c4)cc2OCC3)n(C(C)C)n1 [Taselisib]; conditions: max 10 µM
In short: as §1

Etoposide = compound: COc1cc([C@@H]2c3cc4c(cc3[C@@H](O[C@@H]3O[C@@H]5CO[C@@H](C)O[C@H]5[C@H](O)[C@H]3O)[C@H]3COC(=O)[C@H]23)OCO4)cc(OC)c1O [Etoposide]; conditions: max 10 µM
In short: as §1

AZD4320 = compound: CN(CC[C@H](CSC1=CC=CC=C1)NC2=C(C=C(C=C2)S(=O)(=O)NC(=O)C3=CC=C(C=C3)N4CCC(CC4)[C@H](C5=CC=CC=C5C6=CC=C(C=C6)Cl)O)S(=O)(=O)C(F)(F)F)CCO [AZD4320]; conditions: max 1 µM
In short: as §1

AZD0156 = compound: CN(C)CCCOc1ccc(-c2ccc3ncc4c(c3c2)n(C2CCOCC2)c(=O)n4C)cn1 [AZD0156]; conditions: max 3 µM
In short: as §1

Savolitinib = compound: C[C@@H](c1ccc2nccn2c1)n1nnc2ncc(-c3cnn(C)c3)nc21 [Savolitinib]; conditions: max 1 µM
In short: as §1

Selumetinib = compound: Cn1cnc2c(F)c(Nc3ccc(Br)cc3Cl)c(C(=O)NOCCO)cc21 [Selumetinib]; conditions: max 10 µM
In short: as §1

AZD5363 = compound: C1CN(CCC1(C(=O)N[C@@H](CCO)C2=CC=C(C=C2)Cl)N)C3=NC=NC4=C3C=CN4 [AZD5363]; conditions: max 10 µM
In short: as §1

Alisertib = compound: COc1cc(Nc2ncc3c(n2)-c2ccc(Cl)cc2C(c2c(F)cccc2OC)=NC3)ccc1C(=O)O [Alisertib]; conditions: max 10 µM
In short: as §1

SG3199 = compound: CC1=CN2[C@@H](C1)C=NC3=CC(=C(C=C3C2=O)OC)OCCCCCOC4=C(C=C5C(=C4)N=C[C@@H]6CC(=CN6C5=O)C)OC [SG3199]; conditions: max 0.001 µM
In short: as §1

AZD1390 = compound: CC(C)n1c(=O)n(C)c2cnc3cc(F)c(-c4ccc(OCCCN5CCCCC5)nc4)cc3c21 [AZD1390]; conditions: max 0.3 µM
In short: as §1

Trametinib = compound: CC(=O)Nc1cccc(-n2c(=O)n(C3CC3)c(=O)c3c(Nc4ccc(I)cc4F)n(C)c(=O)c(C)c32)c1 [Trametinib]; conditions: max 1 µM
In short: as §1

Palbociclib = compound: CC(=O)c1c(C)c2cnc(Nc3ccc(N4CCNCC4)cn3)nc2n(C2CCCC2)c1=O [Palbociclib]; conditions: max 10 µM
In short: as §1

AZD8186 = compound: C[C@@H](Nc1cc(F)cc(F)c1)c1cc(C(=O)N(C)C)cc2c(=O)cc(N3CCOCC3)oc12 [AZD8186]
In short: as §1

Carboplatin = compound: C1CC(C1)(C(=O)[O-])C(=O)[O-].N.N.[Pt+2] [Carboplatin]; conditions: max 10 µM
In short: as §1

AZD1775 = compound: C=CCn1c(=O)c2cnc(Nc3ccc(N4CCN(C)CC4)cc3)nc2n1-c1cccc(C(C)(C)O)n1 [AZD1775]; conditions: max 3 µM
In short: as §1

Olaparib = compound: O=C(c1cc(Cc2n[nH]c(=O)c3ccccc23)ccc1F)N1CCN(C(=O)C2CC2)CC1 [Olaparib]; conditions: max 10 µM
In short: as §1

Capivasertib = compound: C1CN(CCC1(C(=O)N[C@@H](CCO)C2=CC=C(C=C2)Cl)N)C3=NC=NC4=C3C=CN4 [Capivasertib]; conditions: max 10 µM
In short: as §1

Cell Line	IC50, cell viability 72 h (MK-2206) [µM]	IC50, cell viability 72 h (AZD2811) [µM]	IC50, cell viability 72 h (AZD5991) [µM]	IC50, cell viability 72 h (Gefitinib) [µM]	IC50, cell viability 72 h (AZD5153) [µM]	IC50, cell viability 72 h (SN-38) [µM]	IC50, cell viability 72 h (Lapatinib) [µM]	IC50, cell viability 72 h (Prexasertib) [µM]	IC50, cell viability 72 h (Doxorubicin) [µM]	IC50, cell viability 72 h (AZD7648) [µM]	IC50, cell viability 72 h [1] [µM]	IC50, cell viability 72 h (SRA737) [µM]	IC50, cell viability 72 h (Gemcitabine) [µM]	IC50, cell viability 72 h (5-Fluorouracil) [µM]	IC50, cell viability 72 h (Venetoclax) [µM]	IC50, cell viability 72 h (Dasatinib) [µM]	IC50, cell viability 72 h (Crizotinib) [µM]	IC50, cell viability 72 h (Paclitaxel) [µM]	IC50, cell viability 72 h (AZD6738) [µM]	IC50, cell viability 72 h (Taselisib) [µM]	IC50, cell viability 72 h (Etoposide) [µM]	IC50, cell viability 72 h (AZD4320) [µM]	IC50, cell viability 72 h (AZD0156) [µM]	IC50, cell viability 72 h (Savolitinib) [µM]	IC50, cell viability 72 h (Selumetinib) [µM]	IC50, cell viability 72 h (AZD5363) [µM]	IC50, cell viability 72 h (Alisertib) [µM]	IC50, cell viability 72 h (SG3199) [µM]	IC50, cell viability 72 h (AZD1390) [µM]	IC50, cell viability 72 h (Trametinib) [µM]	IC50, cell viability 72 h (Palbociclib) [µM]	IC50, cell viability 72 h (AZD8186; max 10 µM) [µM]	IC50, cell viability 72 h (Carboplatin) [µM]	IC50, cell viability 72 h (AZD1775) [µM]	IC50, cell viability 72 h (Olaparib) [µM]	IC50, cell viability 72 h (Capivasertib) [µM]	IC50, cell viability 72 h (AZD8186; max 3 µM) [µM]
CML-T1 (Chronic Myelogenous Leukemia)	2.05	> 1	> 1	> 10	> 1	0.000718	> 10	0.00627	0.0628	> 10	> 5	0.588	0.0125	19.5	0.585	< 0.002	0.692	0.0048	1.11	> 10	0.0926	0.0541	> 3	> 1	4	7.38	0.142	> 0.001	> 0.3	0.262	0.222	> 10	> 10	0.429	5.75		
COLO-684 (Endometrial Carcinoma)	7.21	> 1	> 1	> 10	0.578	0.228	> 10	0.0199	> 1	> 10	> 5	5.2	0.134	> 20	> 1	> 2	> 10	0.558	4.44	4.2	> 10	> 1	> 3	> 1	> 10	4.51	> 10	> 0.001	> 0.3	> 1	> 10	8.93	> 10	0.701	> 10		
ES-2 (Ovarian Carcinoma)	4.4	> 1	> 1	> 10	0.875	0.0145	> 10	0.0401	> 1	> 10					> 1	> 2	> 10		3.78	> 10		> 1	> 3	> 1	7.43		0.596	> 0.001	> 0.3	0.128	> 10			0.476	> 10	> 10	> 3
